The results in this text go back to patent US9850216B2 (H. LEE MOFFITT CANCER CENTER AND RESEARCH INSTITUTE, INC., priority 2013, dated 2017).

Molecules are shown by their SMILES. Values joined by “and” are separate entries in the source; they are usually repeats but may differ in a detail not shown here. Equal values may be shown once. Where a name gives a salt, the structure may show the parent alone. Read-outs that look alike come from different tables or passages of the source.

The target in data set [1] is T1, ACK1 (Homo sapiens, UniProt Q07912). Description: 32P Hotspot assay (Reaction Biology), ACK1 IC50. The class given is biochemical. As for the experimental part:
8 compounds were tested against […], ACK1, Src and ALK in various combinations. […] Reactions were carried out at 10 μM ATP.

Data set [2] deals with T1, ACK1. Briefly: ACK1 ELISA: phosphorylation of AKT-derived peptide. The class given is biochemical. The conditions noted are these: Table 1, replicate values listed. A general note: ELISA stands for enzyme-linked immunosorbent assay.
Where [3] appears, read: Table 1, unit inferred, (RB) = Reaction Biology, replicates listed, read-out: IC50.
[4] abbreviates: 10 μM, read-out: % Inhibition at 10 μM (ELISA).

T1 sequence (Q07912 whole entry): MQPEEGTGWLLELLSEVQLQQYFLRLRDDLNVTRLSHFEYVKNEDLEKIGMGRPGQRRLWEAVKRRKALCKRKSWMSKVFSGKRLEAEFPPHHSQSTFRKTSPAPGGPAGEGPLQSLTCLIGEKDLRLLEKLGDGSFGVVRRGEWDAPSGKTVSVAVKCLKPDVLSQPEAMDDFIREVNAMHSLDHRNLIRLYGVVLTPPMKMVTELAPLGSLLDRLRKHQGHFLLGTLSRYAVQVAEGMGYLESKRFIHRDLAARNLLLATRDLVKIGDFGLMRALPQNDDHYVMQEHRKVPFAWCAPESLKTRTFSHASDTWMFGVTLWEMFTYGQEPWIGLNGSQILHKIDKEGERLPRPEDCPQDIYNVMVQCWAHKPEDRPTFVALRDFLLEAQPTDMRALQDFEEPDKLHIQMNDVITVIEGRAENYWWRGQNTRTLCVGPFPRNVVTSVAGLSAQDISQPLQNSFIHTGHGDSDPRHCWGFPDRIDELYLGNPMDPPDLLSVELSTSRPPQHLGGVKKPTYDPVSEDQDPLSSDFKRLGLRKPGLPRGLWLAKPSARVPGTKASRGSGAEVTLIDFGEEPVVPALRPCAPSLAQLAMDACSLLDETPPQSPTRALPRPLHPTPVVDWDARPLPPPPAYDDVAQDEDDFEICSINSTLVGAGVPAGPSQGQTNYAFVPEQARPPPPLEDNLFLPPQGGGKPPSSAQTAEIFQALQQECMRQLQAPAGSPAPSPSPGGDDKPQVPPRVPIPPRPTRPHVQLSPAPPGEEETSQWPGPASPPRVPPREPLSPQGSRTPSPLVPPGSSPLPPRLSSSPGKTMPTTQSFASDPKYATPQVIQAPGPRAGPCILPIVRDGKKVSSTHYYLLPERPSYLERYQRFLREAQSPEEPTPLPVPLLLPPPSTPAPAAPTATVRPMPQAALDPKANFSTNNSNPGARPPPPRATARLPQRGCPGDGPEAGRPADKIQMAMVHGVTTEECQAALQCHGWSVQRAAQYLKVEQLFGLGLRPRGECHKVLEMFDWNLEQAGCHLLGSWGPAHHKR

For the compound `Clc1cnc(Nc2ccc(N3CCOCC3)cc2)nc1NC[C@@H]1CCCO1` [DZ1-074], the half-maximal inhibitory concentration (IC50) (in general, the concentration at which inhibition is half-maximal) at ACK1 [1] (setting [3]) stood at 7.41e-08 M.

As for `Cc1cc(Nc2ncc(Cl)c(Nc3ccccc3S(=O)(=O)C(C)C)n2)c(OC(C)C)cc1C1CCNCC1` [LDK, reference compound], the IC50 on ACK1 [1] (setting [3]) was 8.87e-08 M.

For the compound `Clc1cnc(Nc2ccc(N3CCOCC3)cc2)nc1NC[C@H]1CCCO1` [DZ1-064], at ACK1 [1] (setting [3]), the IC50 was 4.65e-08 M.

On to `CCCS(=O)(=O)c1ccccc1Nc1nc(Nc2ccc(O)cc2)ncc1C(=O)Nc1c(F)cccc1Cl` [YL7-055-2, N-(2-chloro-6-fluorophenyl)-2-(4-hydroxyphenylamino)-4-(2-(propylsulfonyl)phenylamino)pyrimidine-5-carboxamide], for which the melting point (commonly the temperature, or range, at which the solid turns liquid) is 165 °C (dec.). Further, the % Inhibition – broadly, the relative decrease from the control value, in per cent – at 10 μM (ELISA) on ACK1 [2] (10 μM) is given as 58%. Besides, the inhibition (in general, the change of the read-out against control, counted positive when it falls) at 10 µM on ACK1 [2] (setting [4]) worked out at 57%.

The compound `Cl.Fc1cccc(Nc2ncc(Br)c(NCC3CCCO3)n2)c1` (stereo not shown) [YL7-172-3, 5-Bromo-N2-(3-fluorophenyl)-N4-((tetrahydrofuran-2-yl)methyl)pyrimidine-2,4-diamine hydrochloride] registered a melting point of 194 to 197 °C. The “% Inhibition at 10 μM (ELISA)” value on ACK1 [2] (10 μM, hydrochloride) was 69% and 21% and 25%.

As for `COc1ccc(Nc2ncc(Br)c(NCC3CCCO3)n2)cc1F.Cl` (stereo not shown) [YL7-172-8, 5-Bromo-N2-(3-fluoro-4-methoxyphenyl)-N4-((tetrahydrofuran-2-yl)methyl)pyrimidine-2,4-diamine hydrochloride], the melting point is 169 °C (dec.). For the same compound, the “% Inhibition at 10 μM (ELISA)” value on ACK1 [2] (10 μM, hydrochloride) was 14% and 35% and 41%.

As to `CSc1ccccc1Nc1nc(Nc2ccc(O)cc2)ncc1C(=O)Nc1c(F)cccc1Cl` [YL7-039-2, N-(2-chloro-6-fluorophenyl)-2-(4-hydroxyphenylamino)-4-(2-(methylthio)phenylamino)pyrimidine-5-carboxamide], the melting point was 246 °C (dec.). Also, the “% Inhibition at 10 μM (ELISA)” value on ACK1 [2] (10 μM) was 40% and 5%.

For the compound `Cl.O=C(O)Cc1ccc(Nc2ncc(Br)c(NCC3CCCO3)n2)cc1` (stereo not shown) [NT1-022, 2-(4-(5-Bromo-4-((tetrahydrofuran-2-yl)methylamino)pyrimidin-2-ylamino)phenyl)acetic acid], the melting point was 120 °C (dec.). The “% Inhibition at 10 μM (ELISA)” value at ACK1 [2] (10 μM) was 63%. Besides, the inhibition at 10 µM at ACK1 [2] (setting [4]) came out at 59%.

For `CN1CCN(c2ccc(Nc3ncc(F)c(NCC4CCCO4)n3)cc2)CC1` (stereo not shown) [DZ1-098, 5-fluoro-N2-(4-(4-methylpiperazin-1-yl)phenyl)-N4-((tetrahydrofuran-2-yl)methyl)pyrimidine-2,4-diamine], the melting point is 86 °C (dec.). Also, the “% Inhibition at 10 μM (ELISA)” value at ACK1 [2] (10 μM) is given as 48%. In addition, the inhibition at 10 µM on ACK1 [2] (setting [4]) was 61%.

For `COc1ccc(Nc2ncc(C(=O)Nc3c(F)cccc3Cl)c(Nc3ccccc3S(C)(=O)=O)n2)cc1` [YL7-037, N-(2-chloro-6-fluorophenyl)-2-(4-methoxyphenylamino)-4-(2-(methylsulfonyl)phenylamino)pyrimidine-5-carboxamide], the melting point was 267 °C (dec.). The “% Inhibition at 10 μM (ELISA)” value on ACK1 [2] (10 μM) is 4% and 0%.

For the compound `Cl.Oc1ccc(Nc2nc(NCC3CCCO3)c3ccccc3n2)cc1F` (stereo not shown) [YL8-001, 2-Fluoro-4-(4-((tetrahydrofuran-2-yl)methylamino)quinazolin-2-ylamino)phenol hydrochloride], the melting point was 144 °C (dec.). Also, on ACK1 [2] (10 μM, hydrochloride), the “% Inhibition at 10 μM (ELISA)” value was 4% and 10% and −6%.

In turn, `CCCS(=O)(=O)c1ccccc1Nc1nc(Nc2ccc(OC)cc2)ncc1C(=O)Nc1c(F)cccc1Cl` [YL7-055-1, N-(2-chloro-6-fluorophenyl)-2-(4-methoxyphenylamino)-4-(2-(propylsulfonyl)phenylamino)pyrimidine-5-carboxamide] came in with a melting point of 234 to 235 °C. Moreover, the “% Inhibition at 10 μM (ELISA)” value at ACK1 [2] (10 μM) was 27% and 13%.

Regarding `Cl.O=C(O)CCCc1ccc(Nc2ncc(Cl)c(NC[C@@H]3CCCO3)n2)cc1` [NT1-027, (S)-4-(4-(5-Chloro-4-((tetrahydrofuran-2-yl)methylamino)pyrimidin-2-ylamino)phenyl)butanoic acid], the melting point was 180 °C (dec.). Besides, the “% Inhibition at 10 μM (ELISA)” value on ACK1 [2] (10 μM) is 64%. Moreover, the inhibition at 10 µM on ACK1 [2] (setting [4]) was 52%.

`CSc1ccccc1Nc1nc(Cl)ncc1C(=O)Nc1c(F)cccc1Cl` [YL7-031B2, 2-Chloro-N-(2-chloro-6-fluorophenyl)-4-(2-(methylthio)phenylamino)pyrimidine-5-carboxamide] registered a melting point of 204 to 206 °C. The inhibition at 10 µM on ACK1 [2] (setting [4]) was 0%.

`CCS(=O)(=O)c1ccccc1Nc1nc(Cl)ncc1C(=O)Nc1c(F)cccc1Cl` [YL7-054, 2-Chloro-N-(2-chloro-6-fluorophenyl)-4-(2-(ethylsulfonyl)phenylamino)pyrimidine-5-carboxamide] had a melting point of 230 to 233 °C. Further, at ACK1 [2] (10 μM), the “% Inhibition at 10 μM (ELISA)” value is 0% and −3% and −25%.

`Cl.O=C(O)c1cc(Nc2ncc(C(=O)Nc3c(F)cccc3Cl)c(NCC3CCCO3)n2)ccc1O` (stereo not shown) [YL8-009-2, 5-(5-(2-Chloro-6-fluorophenylcarbamoyl)-4-((tetrahydrofuran-2-yl)methylamino)pyrimidin-2-ylamino)-2-hydroxybenzoic acid hydrochloride]: the melting point was 298 °C (dec.). Moreover, the “% Inhibition at 10 μM (ELISA)” value on ACK1 [2] (10 μM, hydrochloride) was 40% and 55%. For the same compound, at ACK1 [2] (setting [4]), the inhibition at 10 µM turned out to be 44%.

As for `Cc1cnc(Nc2ccc(O)cc2)nc1NCC1CCCO1` (stereo not shown) [DZ1-116, 4-(5-methyl-4-((tetrahydrofuran-2-yl)methylamino)pyrimidin-2-ylamino)phenol], the melting point is 145.4 °C (dec.). The “% Inhibition at 10 μM (ELISA)” value at ACK1 [2] (10 μM) is 15% and 5%.

With `Cc1cnc(Nc2ccc(N3CCN(C)CC3)cc2)nc1NCC1CCCO1` (stereo not shown) [DZ1-100, 5-methyl-N2-(4-(4-methylpiperazin-1-yl)phenyl)-N4-((tetrahydrofuran-2-yl)methyl)pyrimidine-2,4-diamine], the melting point was 151.7 °C (dec.). Besides, the “% Inhibition at 10 μM (ELISA)” value on ACK1 [2] (10 μM) was 85% and 54% and 5% and 10%.

`CC(C)S(=O)(=O)c1ccccc1Nc1nc(Nc2ccc(O)cc2)ncc1C(=O)Nc1c(F)cccc1Cl` [YL7-045-2, N-(2-chloro-6-fluorophenyl)-2-(4-hydroxyphenylamino)-4-(2-(isopropylsulfonyl)phenylamino)pyrimidine-5-carboxamide]: the melting point was 168 °C (dec.). Moreover, the “% Inhibition at 10 μM (ELISA)” value on ACK1 [2] (10 μM) was determined as 50%. On ACK1 [2] (setting [4]), the inhibition at 10 µM is 47%.

Consider `O=C(O)CCCc1ccc(Nc2ncc(Cl)c(NCC3CCCO3)n2)cc1` (stereo not shown) [NT1-025, 4-(4-(5-Chloro-4-((tetrahydrofuran-2-yl)methylamino)pyrimidin-2-ylamino)phenyl)butanoic acid], for which the melting point was 180 °C (dec.). Moreover, the “% Inhibition at 10 μM (ELISA)” value on ACK1 [2] (10 μM) is listed as 65%. Further, the inhibition at 10 µM on ACK1 [2] (read-out: % Inhibition at 10 μM (ELISA), 10 μM) stood at 61%.

With `Clc1cnc(Nc2ccc(N3CCOCC3)cc2)nc1NCC1CCCO1` (stereo not shown) [Compound 9c], the half-inhibitory concentration (IC50) on ACK1 [1] (Table 2, read-out: IC50 (32P Hotspot assay)) amounted to 6.75e-08 M.

On to `CC(C)S(=O)(=O)c1ccccc1Nc1nc(Nc2ccc(N3CCOCC3)cc2)ncc1C(=O)Nc1c(F)cccc1Cl` [YL7-097-1, N-(2-chloro-6-fluorophenyl)-4-(2-(isopropylsulfonyl)phenylamino)-2-(4-morpholinophenylamino)pyrimidine-5-carboxamide], for which the melting point is 220 °C (dec.). On ACK1 [2] (10 μM), the “% Inhibition at 10 μM (ELISA)” value is listed as 65%. In addition, the inhibition at 10 µM on ACK1 [2] (setting [4]) stood at 85%.

Turning to `CCCSc1ccccc1Nc1nc(Nc2ccc(O)cc2)ncc1C(=O)Nc1c(F)cccc1Cl` [YL7-055-4, N-(2-chloro-6-fluorophenyl)-2-(4-hydroxyphenylamino)-4-(2-(propylthio)phenylamino)pyrimidine-5-carboxamide], the melting point was 208 °C (dec.). Moreover, the “% Inhibition at 10 μM (ELISA)” value at ACK1 [2] (10 μM) is 27%. Besides, the inhibition at 10 µM on ACK1 [2] (setting [4]) was determined as 28%.

Take `Brc1cnc(Nc2ccc(N3CCNCC3)cc2)nc1NCC1CCCO1` (stereo not shown) [YL9-167, 5-Bromo-N2-(4-(piperazin-1-yl)phenyl)-N4-((tetrahydrofuran-2-yl)methyl)pyrimidine-2,4-diamine TFA salt]: the concentration for half-maximal inhibition (IC50) at ACK1 [1] (Table 3, 10-dose, 3-fold dilution from 10 μM, 10 μM ATP, read-out: Compound IC50* (M): ACK1) amounted to 9.47e-08 M.

In the case of `CS(=O)(=O)c1ccccc1Nc1nc(Nc2ccc(O)cc2)ncc1C(=O)Nc1c(F)cccc1Cl` [YL7-038, N-(2-chloro-6-fluorophenyl)-2-(4-hydroxyphenylamino)-4-(2-(methylsulfonyl)phenylamino)pyrimidine-5-carboxamide], the melting point was 238 °C (dec.). Moreover, the “% Inhibition at 10 μM (ELISA)” value on ACK1 [2] (10 μM) was 39% and 18%.

`CC(C)S(=O)(=O)c1ccccc1Nc1nc(Nc2ccc(C(N)=O)cc2)ncc1C(=O)Nc1c(F)cccc1Cl` [YL7-106-3, 2-(4-Carbamoylphenylamino)-N-(2-chloro-6-fluorophenyl)-4-(2-(isopropylsulfonyl)phenylamino)pyrimidine-5-carboxamide]: the melting point is 230 °C (dec.). The “% Inhibition at 10 μM (ELISA)” value at ACK1 [2] (10 μM) came to 43%. In addition, on ACK1 [2] (setting [4]), the inhibition at 10 µM stood at 51%.

The compound `COc1ccc(Nc2ncc(C(=O)Nc3c(F)cccc3Cl)c(Nc3ccccc3SC(C)C)n2)cc1` [YL7-045-3, N-(2-chloro-6-fluorophenyl)-4-(2-(isopropylthio)phenylamino)-2-(4-methoxyphenylamino)pyrimidine-5-carboxamide] registered a melting point of 237 to 240 °C. For the same compound, the “% Inhibition at 10 μM (ELISA)” value at ACK1 [2] (10 μM) is −15% and 0%.

Turning to `CCc1cnc(Nc2ccc(N3CCN(C)CC3)cc2)nc1NCC1CCCO1` (stereo not shown) [DZ1-108, 5-ethyl-N2-(4-(4-methylpiperazin-1-yl)phenyl)-N4-((tetrahydrofuran-2-yl)methyl)pyrimidine-2,4-diamine], the melting point was 209.5 °C (dec.). For the same compound, on ACK1 [2] (10 μM), the “% Inhibition at 10 μM (ELISA)” value was 72% and 48% and 34% and 46%.
